We go through 38 compounds from US9814704B2, “Substituted pyrrolo[2,3-b]pyridines as MLK inhibitors” (The University of Rochester, priority 2008, dated 2017).

Counter-ions that a name gives are not always drawn.

As a reminder, the IC50 is the midpoint of a concentration-inhibition curve.

MLK3, sequence (Q16584 whole entry): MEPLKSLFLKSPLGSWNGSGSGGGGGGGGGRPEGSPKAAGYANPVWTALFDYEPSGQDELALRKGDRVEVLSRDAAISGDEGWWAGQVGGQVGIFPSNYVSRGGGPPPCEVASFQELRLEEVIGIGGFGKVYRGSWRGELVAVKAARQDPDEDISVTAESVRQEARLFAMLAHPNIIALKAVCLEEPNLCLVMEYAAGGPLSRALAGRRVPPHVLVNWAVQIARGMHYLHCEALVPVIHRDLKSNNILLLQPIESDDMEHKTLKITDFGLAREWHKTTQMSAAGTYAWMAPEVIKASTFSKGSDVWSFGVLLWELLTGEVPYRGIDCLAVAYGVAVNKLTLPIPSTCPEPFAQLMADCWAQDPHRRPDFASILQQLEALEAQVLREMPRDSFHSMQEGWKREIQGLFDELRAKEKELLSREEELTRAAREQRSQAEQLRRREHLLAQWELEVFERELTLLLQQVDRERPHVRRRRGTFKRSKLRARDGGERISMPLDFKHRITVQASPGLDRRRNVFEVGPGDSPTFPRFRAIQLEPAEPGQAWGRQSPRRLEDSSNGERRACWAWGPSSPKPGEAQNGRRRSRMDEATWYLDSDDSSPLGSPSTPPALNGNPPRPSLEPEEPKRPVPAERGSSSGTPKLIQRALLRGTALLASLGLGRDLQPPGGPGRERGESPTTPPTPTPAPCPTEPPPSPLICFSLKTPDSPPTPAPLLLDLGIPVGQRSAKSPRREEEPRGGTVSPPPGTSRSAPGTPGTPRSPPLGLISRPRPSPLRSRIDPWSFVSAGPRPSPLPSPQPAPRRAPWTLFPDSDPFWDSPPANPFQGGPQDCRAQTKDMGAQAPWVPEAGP

The target in the first assay is MLK3 (Homo sapiens (Human), UniProt Q16584). As to the kind of experiment: Radiometric Filter Plate MLK3 Assay. In kind it is biochemical. The following applies: 200 ng (130 nM) MLK3, 1 μM inactive MKK7b, 2 μM cold ATP (Km), 33P ATP, twenty minute incubation; read-out: MK3 IC50. The method, then:
Radiometric Filter Plate MLK3 Assay
After a twenty minute incubation, the reactions were washed through filter plates and read on a scintillation counter. Results are shown in Table 4 below, in which +++ indicates ≦0.1 μM, ++ indicates >0.1 μM and ≦1 μM, and + indicates >1 μM.
Turning to `COc1cc(-c2cnc3[nH]cc(-c4ccc(CNC(C)=O)cc4)c3c2)cc(OC)c1OC` [Example 159, N-{4-[5-(3,4,5-Trimethoxy-phenyl)-1H-pyrrolo[2,3-b]pyridin-3-yl]-benzyl}-acetamide], the IC50 was below 0.1 µM. On the same count and under the same terms, the value for `COc1cc(-c2cnc3[nH]c(=O)n(-c4cnc5[nH]ccc5c4)c3n2)cc(OC)c1OC` [Example 112, 1-(1H-pyrrolo[2,3-b]pyridin-5-yl)-6-(3,4,5-trimethoxyphenyl)-1H-imidazo[4,5-b]pyrazin-2(3H)-one] was below 0.1 µM. Regarding `O=c1[nH]c2ncc(-c3cc(F)c(O)c(F)c3)nc2n1-c1ccc2[nH]ccc2c1` [Example 59, 6-(3,5-difluoro-4-hydroxyphenyl)-1-(1H-indol-5-yl)-1H-imidazo[4,5-b]pyrazin-2(3H)-one], the 50% inhibitory concentration (IC50) is below 0.1 µM. The same measure, in the same setting: the value for `COc1cc(OC)c(-c2cnc3[nH]c(=O)n(C4CCCC4)c3n2)c(OC)c1` [Example 94, 1-cyclopentyl-6-(2,4,6-trimethoxyphenyl)-1H-imidazo[4,5-b]pyrazin-2(3H)-one] was above 1 µM; that for `COc1cc(-c2cnc3[nH]c(=O)n(-c4ccc5[nH]ccc5c4)c3n2)ccc1O` [Example 55, 6-(4-hydroxy-3-methoxyphenyl)-1-(1H-indol-5-yl)-1H-imidazo[4,5-b]pyrazin-2(3H)-one] was below 0.1 µM; that for `COc1ccc(-c2cnc3[nH]c(=O)n(C4CCCC4)c3n2)cc1OC` [Example 75, 1-cyclopentyl-6-(3,4-dimethoxyphenyl)-1H-imidazo[4,5-b]pyrazin-2(3H)-one] was above 1 µM. The same measure, in the same setting: the value for `CN(C)Cc1ccc(-c2cnc3[nH]cc(-c4ccc5[nH]ccc5c4)c3c2)cc1` [Example 33, 1-(4-(3-(1H-indol-5-yl)-1H-pyrrolo[2,3-b]pyridin-5-yl)phenyl)-N,N-dimethylmethanamine] was below 0.1 µM; that for `COc1cc(-c2cnc3[nH]c(=O)n(CC4CC4)c3c2)cc(OC)c1OC` [Example 125, 1-(cyclopropylmethyl)-6-(3,4,5-trimethoxyphenyl)-1H-imidazo[4,5-b]pyridin-2(3H)-one] was above 1 µM; that for `Cc1cc2cc(-n3c(=O)[nH]c4ncc(-c5ccncc5)nc43)ccc2[nH]1` [Example 85, 1-(2-methyl-1H-indol-5-yl)-6-(pyridin-4-yl)-1H-imidazo[4,5-b]pyrazin-2(3H)-one] was above 1 µM. The same measure, in the same setting: the value for `CN1CCN(c2cc(-c3cnc4[nH]cc(-c5ccc6[nH]ccc6c5)c4c3)ccn2)CC1` [Example 7, 3-(1H-indol-5-yl)-5-(2-(4-methylpiperazin-1-yl)pyridin-4-yl)-1H-pyrrolo[2,3-b]pyridine] was below 0.1 µM; that for `CN1CCN(Cc2cccc(-c3cnc4[nH]cc(-c5ccc6[nH]ccc6c5)c4c3)c2)CC1=O` [Example 143, 4-{3-[3-(1H-indol-5-yl)-1H-pyrrolo[2,3-b]pyridin-5-yl]-benzyl}-1-methyl-piperazin-2-one] was below 0.1 µM.

`CN(C)c1ccc(-c2cnc3[nH]cc(-c4ccc(F)c(Cl)c4)c3c2)cn1` [Example 22, 5-(3-(3-chloro-4-fluorophenyl)-1H-pyrrolo[2,3-b]pyridin-5-yl)-N,N-dimethylpyridin-2-amine]: the IC50 is above 1 µM. Still for that read-out and setting: the value for `O=c1[nH]c2ncc(-c3ccc(N4CCOCC4)cc3)nc2n1-c1ccc2[nH]ncc2c1` [Example 89, 1-(1H-indazol-5-yl)-6-(4-morpholinophenyl)-1H-imidazo[4,5-b]pyrazin-2(3H)-one] was above 1 µM; that for `COc1ccc(-c2cnc3[nH]cc(-c4ccc(C(N)=O)cc4)c3c2)cc1OC` [Example 26, 4-(5-(3,4-dimethoxyphenyl)-1H-pyrrolo[2,3-b]pyridin-3-yl)benzamide] was below 0.1 µM; that for `COc1cc(-c2cnc3[nH]cc(-c4ccc(NC(C)=O)cc4)c3c2)cc(OC)c1OC` [Example 16, N-(4-(5-(3,4,5-trimethoxyphenyl)-1H-pyrrolo[2,3-b]pyridin-3-yl)phenyl)acetamide] was below 0.1 µM. The same measure, in the same setting: the value for `COc1cc(-c2cnc3c(c2)C(Cc2ccccc2)C(=O)N3)cc(OC)c1OC` (centres unmarked) [Example 137, 3-benzyl-5-(3,4,5-trimethoxy-phenyl)-1,3-dihydro-pyrrolo[2,3-b]pyridin-2-one] was above 1 µM; that for `CNC(=O)c1ccc(-c2c[nH]c3ncc(-c4cc(OC)c(OC)c(OC)c4)cc23)cc1` [Example 164, N-methyl-4-[5-(3,4,5-trimethoxy-phenyl)-1H-pyrrolo[2,3-b]pyridin-3-yl]-benzamide] was above 1 µM. Same read-out and setting: the value for `COc1cc(-c2cnc3[nH]c(=O)n(C4Cc5ccccc5C4)c3n2)cc(OC)c1OC` [Example 110, 1-(2,3-dihydro-1H-inden-2-yl)-6-(3,4,5-trimethoxyphenyl)-1H-imidazo[4,5-b]pyrazin-2(3H)-one] was below 0.1 µM; that for `COc1cc(-c2cnc3ncn(-c4ccc5[nH]ccc5c4)c3n2)cc(OC)c1OC` [Example 126, 1-(1H-indol-5-yl)-6-(3,4,5-trimethoxyphenyl)-1H-imidazo[4,5-b]pyrazine] was above 1 µM. Regarding `O=c1[nH]c2ncc(-c3ccncc3)nc2n1C1CCCC1` [Example 77, 1-cyclopentyl-6-(pyridin-4-yl)-1H-imidazo[4,5-b]pyrazin-2(3H)-one], the IC50 is above 1 µM. Still for that read-out and setting: the value for `COc1ccc(-c2cnc3[nH]c(=O)n(-c4ccc5[nH]ncc5c4)c3n2)cc1OC` [Example 87, 6-(3,4-dimethoxyphenyl)-1-(1H-indazol-5-yl)-1H-imidazo[4,5-b]pyrazin-2(3H)-one] was above 1 µM. Still for that read-out and setting: the value for `O=c1[nH]c2ncc(-c3cc(Cl)cc(Cl)c3)nc2n1-c1ccc2[nH]ccc2c1` [Example 48, 6-(3,5-dichlorophenyl)-1-(1H-indol-5-yl)-1H-imidazo[4,5-b]pyrazin-2(3H)-one] was above 1 µM; that for `CC(=O)Nc1ccc(-c2cnc3[nH]cc(-c4ccc5[nH]ccc5c4)c3c2)cc1` [Example 3, N-(4-(3-(1H-indol-5-yl)-1H-pyrrolo[2,3-b]pyridin-5-yl)phenyl)acetamide] was below 0.1 µM; that for `O=c1[nH]c2ncc(-c3ccc(O)cc3)nc2n1-c1ccc2cn[nH]c2c1` [Example 92, 6-(4-hydroxyphenyl)-1-(1H-indazol-6-yl)-1H-imidazo[4,5-b]pyrazin-2(3H)-one] was above 1 µM.

The same assay, now with this note: read-out: MK3 IC50.
For the compound `O=c1[nH]c2ncc(-c3ccc(N4CCOCC4)cc3)nc2n1-c1ccc2[nH]ccc2c1` [Example 52, 1-(1H-indol-5-yl)-6-(4-morpholinophenyl)-1H-imidazo[4,5-b]pyrazin-2(3H)-one], the IC50 lay in the range of 0.1 to 1 µM. Same read-out and setting: the value for `COc1cc(-c2cnc3[nH]c(=O)n(-c4ccc5c(ccn5C)c4)c3n2)cc(OC)c1OC` [Example 41, 1-(1-methyl-1H-indol-5-yl)-6-(3,4,5-trimethoxyphenyl)-1H-imidazo[4,5-b]pyrazin-2(3H)-one] was 0.1 to 1 µM. Take `COc1ccc(-c2cnc3[nH]c(=O)n(CC4CC4)c3n2)cc1OC` [Example 79, 1-(cyclopropylmethyl)-6-(3,4-dimethoxyphenyl)-1H-imidazo[4,5-b]pyrazin-2(3H)-one]: the IC50 lay in the range of 0.1 to 1 µM.

On to `COc1cc(-c2cnc3[nH]cc(-c4ccc(F)cc4)c3c2)cc(OC)c1OC` [Example 166, 3-(4-fluoro-phenyl)-5-(3,4,5-trimethoxy-phenyl)-1H-pyrrolo[2,3-b]pyridine], for which the IC50 is 0.1 to 1 µM. Same read-out and setting: the value for `COc1cc(-c2cnc3[nH]c(=O)n(-c4ccc5[nH]ccc5c4)c3n2)ccc1OCCN1CCNCC1` [Example 67, 1-(1H-indol-5-yl)-6-(3-methoxy-4-(2-(piperazin-1-yl)ethoxy)phenyl)-1H-imidazo[4,5-b]pyrazin-2(3H)-one] was 0.1 to 1 µM; that for `COc1ccc(-c2cnc3[nH]c(=O)n(-c4ccc5[nH]cnc5c4)c3n2)cc1OC` [Example 103, 1-(1H-benzo[d]imidazol-5-yl)-6-(3,4-dimethoxyphenyl)-1H-imidazo[4,5-b]pyrazin-2(3H)-one] was 0.1 to 1 µM. Same read-out and setting: the value for `COc1cc(-c2cnc3c(c2)C(Cc2ccccc2)(Cc2ccccc2)C(=O)N3)cc(OC)c1OC` [Example 139, 3,3-dibenzyl-5-(3,4,5-trimethoxy-phenyl)-1,3-dihydro-pyrrolo[2,3-b]pyridin-2-one] was 0.1 to 1 µM; that for `COc1cc(-c2cnc3[nH]cc(-c4ccc(CNC(=O)CCc5ccccc5)cc4)c3c2)cc(OC)c1OC` [Example 161, 3-phenyl-N-{4-[5-(3,4,5-trimethoxy-phenyl)-1H-pyrrolo[2,3-b]pyridin-3-yl]-benzyl}-propionamide] was 0.1 to 1 µM; that for `NC(=O)c1ccc(-c2c[nH]c3ncc(-c4cccc(C(=O)N5CCNCC5)c4)cc23)cc1` [Example 152, 4-{5-[3-(piperazine-1-carbonyl)-phenyl]-1H-pyrrolo[2,3-b]pyridin-3-yl}-benzamide, hydrochloride salt] was 0.1 to 1 µM.

For the compound `O=c1[nH]c2ncc(-c3ccc4[nH]ccc4c3)nc2n1-c1ccc2[nH]ccc2c1` [Example 53, 1,6-di(1H-indol-5-yl)-1H-imidazo[4,5-b]pyrazin-2(3H)-one], the concentration for half-maximal inhibition (IC50) was in the range of 0.1 to 1 µM. On the same count and under the same terms, the value for `CC(=O)N1CCN(C(=O)c2ccc(-c3cnc4[nH]cc(-c5ccc(C(N)=O)cc5)c4c3)cc2)CC1` [Example 150, 4-{5-[4-(4-acetyl-piperazine-1-carbonyl)-phenyl]-1H-pyrrolo[2,3-b]pyridin-3-yl}-benzamide] was 0.1 to 1 µM; that for `O=c1[nH]c2ncc(-c3ccc4c(c3)OCCO4)nc2n1-c1ccc2[nH]ccc2c1` [Example 63, 6-(2,3-dihydrobenzo[b][1,4]dioxin-6-yl)-1-(1H-indol-5-yl)-1H-imidazo[4,5-b]pyrazin-2(3H)-one] was 0.1 to 1 µM. Still for that read-out and setting: the value for `c1ccc(-c2cnc3[nH]cc(-c4ccc5[nH]ccc5c4)c3c2)cc1` [Example 14, 3-(1H-indol-5-yl)-5-phenyl-1H-pyrrolo[2,3-b]pyridine] was 0.1 to 1 µM; that for `COc1ccc(-c2cnc3[nH]c(=O)n(-c4ccc5cn[nH]c5c4)c3n2)cc1OC` [Example 91, 6-(3,4-dimethoxyphenyl)-1-(1H-indazol-6-yl)-1H-imidazo[4,5-b]pyrazin-2(3H)-one] was 0.1 to 1 µM.
